What all share (type): cell-based
One experiment deals with T1, homomeric KCNQ2 channels (Homo sapiens, UniProt O43526).
T1 construct: expressed in transfected cells; host or cells: CHO cells
As to the kind of experiment: Homomeric KCNQ2 channels expressed in CHO cells, patch-clamp. The following applies: 50 μM. Background: The patch-clamp technique gives a direct electrical read-out from membranes.

Another experiment addresses KCNQ2/Q3 (Homo sapiens, UniProt O43525+O43526). Kind of experiment: Opener potency on KCNQ2/Q3 by leftward shift of half-activation potential (ΔV50) versus concentration, Hill fit. The following applies: compound alone. More on the design: expressed in transfected cells.
A further experiment relates to F-11 neuronal cells. Kind of experiment: Spiking activity and membrane potential of F-11 neuronal cells, current-clamp. The following applies: 10 μM. The protocol:
F-11 neuronal cells were similarly cultured in F-12 Ham media containing 2 mM 1-glutamine supplemented with 10% fetal bovine serum, HAT supplement and antibiotics.
For current measurements in CHO cells, recordings were performed 40 hours following transfection, using the whole-cell configuration of the patch-clamp technique [Hamill et al., Nature 294: 462-464 (1981)]. Signals were amplified using an Axopatch 200B patch-clamp amplifier (Axon Instruments, Foster City, Calif., USA), sampled at 2 kHz and filtered at 800 Hz via a 4-pole Bessel low pass filter. Data were acquired using pClamp 8.1 software (Axon Instruments, Foster City, Calif., USA) and an Elonex Pentium III computer in conjunction with a DigiData 1322A interface (Axon Instruments, Foster City, Calif., USA). The patch pipettes were pulled from borosilicate glass (Warner Instrument. Corp., Hamden, Conn., USA) with a resistance of 2-5 MΩ and were filled with (in mM): 130 KCl, 1 MgCl2, 5 K2ATP, 5 EGTA, 10 HEPES, adjusted with KOH at pH 7.4 (290 mOsm). The external solution contained (in [mM]): 140 NaCl, 4 KCl, 1.8 CaCl2, 1.2 MgCl2, 11 glucose, 5.5 HEPES, adjusted with NaOH at pH 7.4 (310 mOsm). Series resistances (3-13 MΩ) were compensated (75-90%) and periodically monitored. For current-clamp measurements of rat cortical neurons, recordings were performed 10-14 days after plating, while rat DRG neurons recordings were performed 3 days after plating. The patch pipettes were filled with (in [mM]): 135 KCl, 1 K2ATP, 1 MgATP, 2 EGTA, 1.1 CaCl2, 5 glucose, 10 HEPES, adjusted with KOH at pH 7.4 (315 mOsm). The external solution contained (in [mM]): 140 NaCl, 4 KCl, 2 CaCl2, 2 MgCl2, 5 glucose, 10 HEPES, adjusted with NaOH at pH 7.4 (325 mOsm). For evoking the neuronal action potentials, 50-300 pA currents were injected into the cells for 800 ms (square pulse). Recordings were sampled at 5 kHz and filtered at 2 KHz via a 4-pole Bessel low pass filter. […]

The next experiment relates to CA1 pyramidal neurons. As to the kind of experiment: Bursting and spike ADP of CA1 pyramidal neurons in rat hippocampal slices, current-clamp. The protocol:
Using selective blockers and openers, it was recently shown that M-channels critically modulate the firing pattern of pyramidal hippocampal neurons by controlling the strength, duration and escalation into bursts of spike after depolarization (Yue and Yaari J. Neurosci., 24(19):4614-24, 2004).
To evaluate the effect of Compound 6 on the spike ADP, a brief depolarizing current pulse was injected to the neurons to elicit a solitary spike.

The subject of the next experiment is COX (Cyclooxygenase). Kind of experiment: COX activity assay in C-26 cells (PGE2 radioimmunoassay). The protocol: C-26 cells were plated on 24-well plates using RPMI medium. Different concentrations of the tested compound were added thereto and the cells were incubated for 30 minutes at 37° C. 30 μM exogenic arachidonic acid was then added and incubation was continued for 20 minutes (37° C.), so as to allow the cells to synthesize PGE2. Indomethacin was added thereafter (10 μM), to stop and completely block the activity. Then, the upper solution was removed into clean 24-wells. To the remained cells 100 μl NaOH (1M) were added to induce cytolysis, and the cells were left for later protein measurement. The solution removed to the new 24-well was used for a radioimmunoassay. The COX activity was estimated by calculating the ng PGE2/mg protein parameter.

In general, IC50 refers to the concentration that inhibits the measured activity by half. A higher IC50 goes with weaker potency in that assay.

For `Cc1ccc(Cl)c(Nc2ccccc2C(=O)O)c1Cl` [Compound 1, Meclofenamic acid], the “leftward shift in the activation curve of KCNQ2 channels” value on homomeric KCNQ2 channels (CHO cells) is given as −26.9 mV. Besides, at homomeric KCNQ2 channels (stepped from −85 mV to −40 mV), the “increase of KCNQ2 current amplitude” value stood at 240±26%. Besides, at homomeric KCNQ2 channels (control 92.6±3.9 msec), the “time constant of deactivation τdeact of KCNQ2 with compound” value came out at 152.7 ± 4.9 ms. Further, the “V50 of KCNQ2 activation with compound” value at homomeric KCNQ2 channels (control −23.6±2.2 mV) was −50.5±1.4 mV. Also, the “Hill coefficient ηH” value on KCNQ2/Q3 (Hill fit) is listed as 2.1±0.5. Also, the EC50 at KCNQ2/Q3 (Hill fit, read-out: EC50 of leftward shift of the half-activation potential (ΔV50)) stood at 25.7 ± 1.1 µM. Moreover, the “maximal left-shift of the half-activation potential (ΔV50)” value on KCNQ2/Q3 is reported as −20±3 mV.

`O=C(Cc1ccccc1Nc1c(Cl)cccc1Cl)NCCOCCO` [Compound 6]: in the experiment on F-11 neuronal cells, the “effect on spikes generated in F-11 cells” value is “completely and reversibly blocks”; the “hyperpolarization of the membrane potential” value stood at 9±3 mV. Further, the “membrane potential of the F-11 neuronal cell with compound” value in the experiment on F-11 neuronal cells (FIG. 26, from −59 mV) was −67 mV. Besides, the “effect on burst spiking” value with CA1 pyramidal neurons (25 μM, long suprathreshold depolarizing current pulses) is reported as “suppression of the burst”. Also, the “ADP size with compound” value with CA1 pyramidal neurons (solitary spike, control 193.8±49.7 mV msec) came to 117.1±40.6 mV msec. The “COX inhibition activity (in words)” value in the experiment with COX (Cyclooxygenase) is reported as “do not exhibit COX inhibition activity”. The same molecule came in with an IC50 with COX (Cyclooxygenase) (C-26 cells) of over 30 µM. In the experiment with COX (Cyclooxygenase) (concentration of up to 10 μM), the “effect on COX activity” value is “did not block”.

These data come from US8618169B2, “Derivatives of N-phenylanthranilic acid and 2-benzimidazolone as potassium channel and/or neuron activity modulators” (Ramot at Tel-Aviv University Ltd., priority 2002, dated 2013).
